Test results reported in patent US6316451A, “Heterocyclyl anthracyclinone derivatives” (Pharmacia & Upjohn S.p.A., priority 1998, dated 2001).

Target: T1, Aβ1-40 peptide monomer (Homo sapiens, UniProt P05067)
T1 construct: An Aβ1-40 peptide monomer stock solution was prepared
Assay: Inhibition of the seed-triggered aggregation of Aβ1-40 peptide monomer (HPLC quantitation of residual monomer)
Assay type: biochemical
Settings: 50 μm test compound; 20 μM Aβ1-40 monomer; 4 μm pre-formed sonicated Aβ1-40 fibrils (seed); phosphate buffer pH 7.4, 150 mM NaCl; two hours at 37° C.
Protocol: The compounds disclosed in the present invention interfere with the aggregation of monomeric Aβ1-40 peptide stimulated by a seed of Aβ1-40 amyloid fibrils. The activity of the compounds was assessed according to the procedure reported below.
An Aβ1-40 peptide monomer stock solution was prepared by dissolving the peptide in dimethylsulfoxide at a concentration of 33.33 mg/ml. The stock solution was further diluted 11.5 times with dimethylsulfoxide. This solution was then diluted with 10 mM phosphate buffer pH 7.4 containing 150 mM sodium chloride to prepare the test solution.
To an eppendorf tube containing 47 μl of Aβ1-40 peptide monomer solution were added 3 μl of a 830 μM water solution of the test compound containing 66.4 μM, based on the Aβ1-40 monomer content, of pre-formed sonicated Aβ1-40 fibrils: the resulting solution was 20 μM in Aβ1-40 monomer, 50 μm in the test compound and contained 4 μm, based on the Aβ1-40 monomer content, of pre-formed sonicated Aβ1-40 fibrils. The aggregation was allowed to proceed for two hours at 37° C. The suspension was then centrifuged at 15000 rpm for 15 minutes at +4° C., the supernatant was collected and the Aβ1-40 monomer was quantitated by HPLC.
The activity is expressed as the percent of inhibition of the aggregation of a 20 μM Aβ1-40 monomer solution stimulated by 4 μm, based on the Aβ1-40 monomer content, pre-formed sonicated Aβ1-40 fibrils.

T1 sequence (P05067 672-711 limits assumed): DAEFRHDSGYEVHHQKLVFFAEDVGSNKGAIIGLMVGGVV

% INHIBITION of the aggregation of Aβ1-40 monomer | SMILES
49.2% | COc1cccc2c1C(=O)c1c(O)c3c(c(O)c1C2=O)C[C@@](O)(c1csc(N2CCN(C)CC2)n1)C[C@@H]3N1CCOCC1 [Compound 1j, 7-Deoxy-7-(4-morpholinyl)-9-deacetyl-9-[2-(4-methyl-perazin-1-yl)-thiazol-4-yl]-daunomycinone]
33.7% | COc1cccc2c1C(=O)c1c(O)c3c(c(O)c1C2=O)C[C@@](O)(c1csc(NCCN(C)C)n1)C[C@@H]3O [Compound 1d, 9-Deacetyl-9-[2-(2-dimethylaminoethylamino)-thiazol-4-yl]-daunomycinone]
31.7% | COc1cccc2c1C(=O)c1c(O)c3c(c(O)c1C2=O)C[C@@](O)(c1csc(N2CCN(C)CC2)n1)CC3 [Compound 1i, 7-Deoxy-9-deacetyl-9-[2-(4-methyl-piperazin-1-yl)-thiazol-4-yl]-daunomycinone]
